From patent US20100169988A1, “MEANS AND METHODS FOR ISOLATING AND DETERMINING NOVEL TARGETS FOR THE TREATMENT OF NEURODEGENERATIVE, NEUROLOGICAL OR NEUROPSYCHIATRIC DISORDERS AND COMPOSITIONS COMPRISING THE SAME” (priority 2006, published 2010)

Target: T1, γ-secretase (Homo sapiens, UniProt P49768)
T1 construct: endogenous in cells; host or cells: cells transfected with α-/β-CTF-Citrine constructs
Assay: Subcellular localization of Citrine-labeled α-CTF/β-CTF constructs
Type: cell-based
Settings: Hek 293 cells transfected with α-CTF or β-CTF Citrine constructs
Excerpt: In a first step, the CTF constructs alone were transfected, without any additional influence on subcellular localization and an entirely homogeneous distribution of Citrine fluorescence throughout the cell was observed. Like APP, these constructs first require cleavage of the signal peptide by Signal Peptidase. However, these “precleaved” CTFs never require ectodomain-shedding in the conventional sense of α- or β-secretase cleavage, which is time consuming not only because of the cleavage step alone, but because of the protein trafficking required to make APP accessible to the secretases. PS cleavage was therefore assumed to take place much more rapidly than is the case for wtAPP, whereupon the same experiments were performed with γ-secretase inhibitor L-685,458 aiming at prolonging the half-life of the uncleaved CTFs. […] Apart from this stabilization, however, no obvious difference was discerned between the subcellular localization of the two constructs.
Subcellular protein distribution of fluorescently tagged proteins or proteins stained as described supra was analyzed on a Leica TCS/SP2 confocal microscope. Pictures were acquired at a resolution of 1024×1024 using the 63×H2O immersion objective. Typically, 5-8 z-axis sections were recorded across the entire height of embedded cells so that typical section separations were 0.5 μm. […]

## CC(C)C[C@H](NC(=O)[C@H](Cc1ccccc1)C[C@@H](O)[C@H](Cc1ccccc1)NC(=O)OC(C)(C)C)C(=O)N[C@@H](Cc1ccccc1)C(N)=O [L-685,458]
  subcellular localization of uncleaved CTF-Citrine: accumulation in ER and Golgi was observed
